Drawing on patent US20110092490A1, “PYRIMIDINES, TRIAZINES AND THEIR USE AS PHARMACEUTICAL AGENTS” (THE UNIVERSITY OF NOTTINGHAM, priority 2008, published 2011), this text covers IC50, GI50 and melting point for 13 molecules.

Where two headings read alike, the source gives them in different places. Bounds are passed on as bounds.

In series [1] the target is CDK7 (Homo sapiens, UniProt P50613). The series can be described thus: Kinase assay (radioactive phosphate incorporation). Format: biochemical. The conditions noted are these: CDK7-cyclinH; read-out: Kinase inhibition IC50 CDK7-cyclinH. As for the experimental part:
(§1) Kinase assays. The compounds from the examples above were investigated for their ability to inhibit the enzymatic activity of various protein kinases using the method as disclosed in Wang, S. et al. J Med Chem 2004, 47, 1662. This was achieved by measurement of incorporation of radioactive phosphate from ATP into appropriate polypeptide substrates. Recombinant protein kinases and kinase complexes were produced or obtained commercially. Assays were performed using 96-well plates and appropriate assay buffers (typically 25 mM β-glycerophosphate, 20 mM MOPS, 5 mM EGTA, 1 mM DTT, 1 mM […], pH 7.4), into which were added 2-4 μg of active enzyme with appropriate substrates. The reactions were initiated by addition of Mg/ATP mix (15 mM MgCl2+100 μM ATP with 30-50 kBq per well of [γ-^32P]-ATP) and mixtures incubated as required at 30° C.; Reactions were stopped on ice, followed by filtration through p81 filterplates or GF/C filterplates (Whatman Polyfiltronics, Kent, UK). After washing 3 times with 75 mM aq orthophosphoric acid, plates were dried, scintillant added and incorporated radioactivity measured in a scintillation counter (TopCount, Packard Instruments, Pangbourne, Berks, UK). Compounds for kinase assay were made up as 10 mM stocks in DMSO and diluted into 10% DMSO in assay buffer.

The test system of series [2] is MCF-7. The series is described as follows: 72-h MTT cytotoxicity assay. Format: cell-based, human. The conditions noted are these: for GI50: Homo sapiens, MCF7 cells, 72-h MTT. Here is the method: (§2) MTT cytotoxicity assay. […] Human tumour cell lines were obtained from ECACC (European Collection of Cell Cultures). Standard 72-h MTT (thiazolyl blue; 3-[4,5-dimethylthiazol-2-yl]-2,5-diphenyltetrazolium bromide, 2 mg/ml in phosphate buffered saline) assays were performed. In short: cells were seeded into 96-well plates according to doubling time and incubated overnight at 37° C. Test compounds were made up in DMSO and a ⅓ dilution series prepared in 100 μL cell media, added to cells (in triplicates) and incubated for 72 hr at 37° C. MTT was made up as a stock of 5 mg/mL in cell media and filter-sterilised. Media was removed from cells followed by a wash with 200 μL PBS. MTT solution was then added at 20 μL per well and incubated in the dark at 37° C. for 4 h. MTT solution was removed and cells again washed with 200 μL PBS. MTT dye was solubilised with 200 μL per well of DMSO with agitation. Absorbance was read at 550 nm on an Anthos Labtec Systems plate reader.

Series [3] deals with HCT-116. The series can be described thus: 72-h MTT cytotoxicity assay. Conditions: for GI50: Homo sapiens, HCT-116, HCT116 cells, 72-h MTT. Format: cell-based, human. As for the experimental part: as §2
The test system of series [4] is A549. The series is described as follows: 72-h MTT cytotoxicity assay. The format is cell-based. Conditions: read-out: 72-h MTT IC50 (μM), human cell line, lung. As for the experimental part:
(§3) MTT cytotoxicity assay. The compounds from the examples above were subjected to a standard cellular proliferation assay using the method described previously (Haselsberger, K. et al. Anti Cancer Drugs 1996, 7, (3), 331-8. Loveland, B. E. et al. Biochemistry International 1992, 27, (3), 501-10). Human tumour cell lines were obtained from ECACC (European Collection of Cell Cultures). Standard 72-h MTT (thiazolyl blue; 3-[4,5-dimethylthiazol-2-yl]-2,5-diphenyltetrazolium bromide, 2 mg/ml in phosphate buffered saline) assays were performed. In short: cells were seeded into 96-well plates according to doubling time and incubated overnight at 37° C. Test compounds were made up in DMSO and a ⅓ dilution series prepared in 100 μL cell media, added to cells (in triplicates) and incubated for 72 hr at 37° C. MTT was made up as a stock of 5 mg/mL in cell media and filter-sterilised. Media was removed from cells followed by a wash with 200 μL PBS. MTT solution was then added at 20 μL per well and incubated in the dark at 37° C. for 4 h. MTT solution was removed and cells again washed with 200 μL PBS. MTT dye was solubilised with 200 μL per well of DMSO with agitation. Absorbance was read at 550 nm on an Anthos Labtec Systems plate reader.
In general terms: Tetrazolium dyes change colour on reduction, which living cells bring about.

Series [5] concerns HeLa. The series is described as follows: 72-h MTT cytotoxicity assay. Format: cell-based. Conditions: read-out: 72-h MTT IC50 (μM), human cell line, cervix. As for the experimental part: as §3
Series [6] concerns PANC W1. The series can be described thus: 72-h MTT cytotoxicity assay. The format is cell-based. Conditions: read-out: 72-h MTT IC50 (μM), human cell line, pancreatic carcinoma. Here is the method:
as §3

Series [7] concerns Mia-Paca-2. The series can be described thus: 72-h MTT cytotoxicity assay. Format: cell-based. The conditions noted are these: read-out: 72-h MTT IC50 (μM), human cell line, pancreatic carcinoma. Here is the method: as §3
For series [8], the system named is MDA-MB-231. The series can be described thus: 72-h MTT cytotoxicity assay. Format: cell-based. The conditions noted are these: read-out: 72-h MTT IC50 (μM), human cell line, breast. As for the experimental part:
as §3

Series [9] relates to NCI-H460. The series can be described thus: 72-h MTT cytotoxicity assay. The format is cell-based. The conditions noted are these: read-out: 72-h MTT IC50 (μM), human cell line, lung. Here is the method: as §3
Series [10] relates to A2780. The series can be described thus: 72-h MTT cytotoxicity assay. Format: cell-based. The conditions noted are these: read-out: 72-h MTT IC50 (μM), human cell line, ovarian carcinoma. Here is the method: as §3
For series [11], the system named is Human tumour cell lines. The series is described as follows: 72-h MTT cytotoxicity assay, human tumour cell lines (panel / mean). Conditions: read-out: 72-h MTT IC50 (μM), mean over the nine human cell lines of Table A2. Format: cell-based. As for the experimental part:
as §3

A short description of series [12]: 72-h MTT cytotoxicity assay. The format is cell-based. The conditions noted are these: human, MRC5 cells. Here is the method:
as §2

The target in series [13] is CDK2 (Homo sapiens, UniProt P24941). The series is described as follows: Kinase assay (radioactive phosphate incorporation). Format: biochemical. The conditions noted are these: CDK2-cyclinE; read-out: Kinase inhibition IC50 CDK2-cyclinE. Here is the method:
as §1, with “The compounds from the examples above were investigated for their ability to inhibit the enzymatic activity of various protein kinases using the method as disclosed in Wang, S. et al. J Med Chem 2004, 47, 1662.” left out

For series [14], the target named is CDK9 (Homo sapiens, UniProt P50750). The series can be described thus: Kinase assay (radioactive phosphate incorporation). Format: biochemical. Here is the method: as §1, with “The compounds from the examples above were investigated for their ability to inhibit the enzymatic activity of various protein kinases using the method as disclosed in Wang, S. et al. J Med Chem 2004, 47, 1662.” left out

Setting [15] is: CDK9-cyclinT1, read-out: Kinase inhibition IC50 CDK9-cyclinT1.

CDK9, sequence (P50750 whole entry, species assumed): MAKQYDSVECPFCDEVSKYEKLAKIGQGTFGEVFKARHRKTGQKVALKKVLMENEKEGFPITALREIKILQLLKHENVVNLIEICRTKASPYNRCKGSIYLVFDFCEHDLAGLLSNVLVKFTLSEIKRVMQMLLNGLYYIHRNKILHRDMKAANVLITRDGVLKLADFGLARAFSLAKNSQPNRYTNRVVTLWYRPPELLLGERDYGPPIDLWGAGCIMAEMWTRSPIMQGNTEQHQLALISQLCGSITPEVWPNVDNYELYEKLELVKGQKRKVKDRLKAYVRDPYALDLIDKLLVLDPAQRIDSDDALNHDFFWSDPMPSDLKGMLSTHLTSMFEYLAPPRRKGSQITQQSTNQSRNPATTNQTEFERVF
CDK9, sequence (O60563 whole entry partner, species assumed): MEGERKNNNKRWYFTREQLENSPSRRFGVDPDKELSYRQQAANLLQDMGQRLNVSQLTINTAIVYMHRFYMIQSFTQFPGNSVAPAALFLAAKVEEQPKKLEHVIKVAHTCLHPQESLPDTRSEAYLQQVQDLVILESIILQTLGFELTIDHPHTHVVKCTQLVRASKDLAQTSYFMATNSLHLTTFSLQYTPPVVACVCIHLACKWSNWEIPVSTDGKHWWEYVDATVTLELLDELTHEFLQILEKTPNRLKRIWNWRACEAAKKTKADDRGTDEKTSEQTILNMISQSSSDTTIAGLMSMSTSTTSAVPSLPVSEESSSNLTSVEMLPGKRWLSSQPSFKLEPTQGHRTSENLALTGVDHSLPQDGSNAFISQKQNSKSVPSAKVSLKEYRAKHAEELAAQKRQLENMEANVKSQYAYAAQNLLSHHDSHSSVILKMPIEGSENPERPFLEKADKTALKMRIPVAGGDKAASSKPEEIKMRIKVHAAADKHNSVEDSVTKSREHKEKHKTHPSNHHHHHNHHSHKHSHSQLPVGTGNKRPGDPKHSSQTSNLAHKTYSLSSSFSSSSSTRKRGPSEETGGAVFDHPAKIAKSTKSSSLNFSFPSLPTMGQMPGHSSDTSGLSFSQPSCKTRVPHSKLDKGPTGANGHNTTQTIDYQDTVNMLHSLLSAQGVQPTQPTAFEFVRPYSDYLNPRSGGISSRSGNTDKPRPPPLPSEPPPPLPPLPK
CDK7, sequence (P50613 whole entry, species assumed): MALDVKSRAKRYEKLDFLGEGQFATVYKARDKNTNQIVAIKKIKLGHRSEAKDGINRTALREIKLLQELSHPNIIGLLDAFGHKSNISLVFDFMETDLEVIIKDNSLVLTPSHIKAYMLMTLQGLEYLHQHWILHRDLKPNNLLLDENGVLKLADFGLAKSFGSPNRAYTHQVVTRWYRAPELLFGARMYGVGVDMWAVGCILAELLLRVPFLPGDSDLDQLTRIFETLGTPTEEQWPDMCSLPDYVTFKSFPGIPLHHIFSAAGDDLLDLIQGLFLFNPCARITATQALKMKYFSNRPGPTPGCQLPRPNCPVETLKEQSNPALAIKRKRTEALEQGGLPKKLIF
CDK7, sequence (P51946 whole entry partner, species assumed): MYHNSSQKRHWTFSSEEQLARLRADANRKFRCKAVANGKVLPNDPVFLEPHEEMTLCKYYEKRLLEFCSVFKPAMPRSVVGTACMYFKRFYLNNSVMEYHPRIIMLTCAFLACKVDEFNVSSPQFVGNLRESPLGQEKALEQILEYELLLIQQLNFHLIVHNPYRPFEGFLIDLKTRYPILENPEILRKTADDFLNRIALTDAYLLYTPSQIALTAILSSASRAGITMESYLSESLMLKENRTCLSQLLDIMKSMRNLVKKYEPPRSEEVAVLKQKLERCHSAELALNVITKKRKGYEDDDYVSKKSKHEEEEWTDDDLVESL

On to `CNc1nc(C)c(-c2nc(Nc3ccc(C)c(S(=O)(=O)N4CCOCC4)c3)ncc2C#N)s1` [Example 1.1, 4-(4-Methyl-2-methylamino-thiazol-5-yl)-2-[4-methyl-3-(morpholine-4-sulfonyl)-phenylamino]-pyrimidine-5-carbonitrile], for which the 50% inhibitory concentration (IC50) is over 1000 nM in series [1]; 0.06 µM in series [2] (MCF7, read-out: 72-h MTT IC50 (μM), human cell line, breast, MCF-7, 72 h); 0.06 µM in series [3] (read-out: 72-h MTT IC50 (μM), human cell line HCT-116 (origin not given, stands under cervix), 72 h); 0.534 µM in series [4]; 0.661 µM in [5]; 0.366 µM in [6]. For the same molecule, the IC50 in series [7] came to 0.468 µM; in series [8] it was 0.923 µM; in series [9], 0.681 µM; in [10] it was 0.147 µM; in series [11], 0.433 µM; in series [13] it was 232 nM. The 50% inhibitory concentration (IC50) in [14] (setting [15]) is 41 nM. Further, the GI50 in series [2] and in [3] was 60 nM each time. This molecule also yielded a GI50 at 72 h in series [12] of 3140 nM.

In the case of `CNc1nc(C)c(-c2nc(Nc3ccc(O)cc3)ncc2C#N)s1` [Example 1.2, 2-(4-Hydroxy-phenylamino)-4-(4-methyl-2-methylamino-thiazol-5-yl)-pyrimidine-5-carbonitrile], the values for the GI50 in series [2] and in [3] were 230 nM and 400 nM, respectively. Growth in series [12] was halved (GI50 at 72 h) at 1050 nM.

As for `CNc1nc(C)c(-c2nc(Nc3cccc(O)c3)ncc2C#N)s1` [Example 1.3, 2-(3-Hydroxy-phenylamino)-4-(4-methyl-2-methylamino-thiazol-5-yl)-pyrimidine-5-carbonitrile], in series [14], the IC50 came to 19 nM.

In the case of `CNc1nc(C)c(-c2nc(Nc3cccc(C(=O)N4CCOCC4)c3)ncc2C#N)s1` [Example 1.4], the results for the IC50 in series [1], in [13] and in series [14] (setting [15]) were 3740 nM, 147 nM and 85 nM, respectively. For the same molecule, the GI50 stood at 820 nM in series [2] and 590 nM in series [3]. Also, in series [12], growth was halved (GI50 at 72 h) at 4430 nM.

For the molecule `CNc1nc(C)c(-c2nc(Nc3cccc(C(=O)N4CCN(C(C)=O)CC4)c3)ncc2C#N)s1` [Example 1.5, 2-(3-(4-Acetylpiperazine-1-carbonyl)phenylamino)-4-(4-methyl-2-(methylamino)-thiazol-5-yl)pyrimidine-5-carbonitrile], the half-inhibitory concentration (IC50) was 52 nM in series [13] and 33 nM in [14] (setting [15]).

Take `CNc1nc(C)c(-c2nc(Nc3cccc(C(=O)O)c3)ncc2C#N)s1` [Example 1.6, 3-(5-cyano-4-(4-methyl-2-(methylamino)thiazol-5-yl)pyrimidin-2-ylamino)benzoic acid]: the results for the GI50 in series [2] and in series [3] were 1870 nM and 550 nM, respectively. Also, the GI50 at 72 h in [12] is over 100000 nM.

As to `CNc1nc(C)c(-c2nc(Nc3ccc(S(N)(=O)=O)cc3)ncc2C#N)s1` [Example 1.8, 4-(5-cyano-4-(4-methyl-2-(methylamino)thiazol-5-yl)pyrimidin-2-ylamino)benzenesulfonamide], the GI50 in series [2] was found to be 1640 nM; in series [3], 340 nM. The molecule also returned a GI50 at 72 h in series [12] of 26000 nM.

Molecule `COc1cccc(-c2nc(Cl)nc(Nc3ccc(O)cc3)n2)c1` [Example 2.1, 4-(4-chloro-6-(3-methoxyphenyl)-1,3,5-triazin-2-ylamino)phenol] registered a melting point of 93.5 to 94 °C.

`COc1cccc(-c2nc(Cl)nc(Nc3cccc([N+](=O)[O-])c3)n2)c1` [Example 2.2, 4-chloro-6-(3-methoxyphenyl)-N-(3-nitrophenyl)-1,3,5-triazin-2-amine] gave a melting point of 196.9 to 197.2 °C.

Molecule `COc1cccc(-c2nc(Cl)nc(Nc3cccc(Br)c3)n2)c1` [Example 2.3, N-(3-bromophenyl)-4-chloro-6-(3-methoxyphenyl)-1,3,5-triazin-2-amine] had a melting point of 141.9 to 142.1 °C.

Take `COc1cccc(-c2nc(Cl)nc(Nc3ccc(C)c(S(=O)(=O)N4CCOCC4)c3)n2)c1` [Example 2.4, 4-chloro-6-(3-methoxyphenyl)-N-(4-methyl-3-(morpholinosulfonyl)phenyl)-1,3,5-triazin-2-amine]: the GI50 in [2] is 1580 nM; in series [3], 530 nM. Besides, the concentration for 50% growth inhibition (GI50) at 72 h in series [12] was 580 nM.

With `COc1cccc(-c2nc(N)nc(Nc3cccc([N+](=O)[O-])c3)n2)c1` [Example 2.6, 6-(3-methoxyphenyl)-N2-(3-nitrophenyl)-1,3,5-triazine-2,4-diamine], the 50% growth inhibitory concentration (GI50) in series [2] stood at 7070 nM; in series [3], 7090 nM. The same molecule showed a concentration for 50% growth inhibition (GI50) at 72 h in [12] of 37600 nM.

In the case of `COc1cccc(-c2nc(NO)nc(Nc3cccc([N+](=O)[O-])c3)n2)c1` [Example 2.8, 4-(hydroxyamino)-6-(3-methoxyphenyl)-N-(3-nitrophenyl)-1,3,5-triazin-2-amine], the GI50 amounted to 6420 nM in [2] and 3480 nM in series [3]. The molecule also gave a 50% growth inhibitory concentration (GI50) at 72 h in series [12] of 4240 nM.

A word on the IC50: it is the concentration at which inhibition is half-maximal. A word on the GI50: it is the concentration giving 50% growth inhibition. By melting point is commonly meant the temperature of the solid-liquid transition.
